These results are taken from US8969294B2 (Istituto di Recerche di Biologia Molecolare P. Angeletti …, priority 2008, dated 2015).

Molecules are shown by their SMILES. Where two headings read alike, the source gives them in different places. Numbered stars: 1 amine (or outer) side, 2 acyl side, 3 side chain; on linkers, the order of the positions; unused ones are H or OH. Bridge positions count the residues as written; N and C are the ends. Square brackets hold non-standard residues; d marks the D form. Side chains are listed from the residue outwards. Peptide text beside a SMILES is read from it. * marks the point of attachment. γGlu = O=C(O)[C@H](CCC(=O)[*:2])N[*:1]; Palmitoyl = CCCCCCCCCCCCCCCC(=O)*; Aib = CC(C)(N)C(=O)O

The assay concerns the target glucagon receptor (Homo sapiens, UniProt P47871). The assay can be described thus: Functional assay, cAMP synthesis: luciferase reporter in HEK293 cells co-transfected with glucagon receptor. In general terms: Reporter assays use an easily measured gene product as a stand-in for the process of interest.
The mark [1] stands for this setting: EC50 at Glucagon Receptor, Table 31.
Setting [2] is: EC50, Glucagon Receptor, Table 13.

Sequence of glucagon receptor (P47871 26-477): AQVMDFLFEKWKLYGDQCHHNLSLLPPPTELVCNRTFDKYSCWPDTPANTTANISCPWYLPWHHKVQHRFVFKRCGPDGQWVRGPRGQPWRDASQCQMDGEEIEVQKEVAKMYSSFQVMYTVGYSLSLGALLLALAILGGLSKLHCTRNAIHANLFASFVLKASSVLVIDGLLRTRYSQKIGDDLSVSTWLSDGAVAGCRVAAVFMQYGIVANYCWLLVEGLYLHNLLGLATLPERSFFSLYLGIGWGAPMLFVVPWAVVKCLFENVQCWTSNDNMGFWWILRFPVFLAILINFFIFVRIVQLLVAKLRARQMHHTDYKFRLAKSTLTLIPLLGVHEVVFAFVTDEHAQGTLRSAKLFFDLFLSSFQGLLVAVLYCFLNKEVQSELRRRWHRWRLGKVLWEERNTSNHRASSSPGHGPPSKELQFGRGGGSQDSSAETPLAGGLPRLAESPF
Description: Peptide absorbance readings were obtained from UV Absorbance measurements at 280 nm on a Genesys 6 Spectrophotometer (Thermo Electron Corporation). Beer's Law was used to calculate solution concentrations based on the number of tryptophan and tyrosine residues in each analog. At the end of the incubation, 100 μL LucLite luminescence substrate reagent was added to each well, the plate sealed and shaken, and placed into a Wallac Trilux luminescence counter for cAMP detection.
HEK293 cells were co-transfected with the GcgR or GLP-1R cDNAs and a luciferase reporter gene-linked to a cAMP response element (CRE). […] The plate was incubated for 10 min in the dark and light output was quantified on a MicroBeta1450 liquid scintillation counter (Perkin-Elmer, Wellesley, Mass.).

Usually EC50 stands for the concentration at which the effect is half-maximal. As to `CCCCCCCCCCCCCCCC(=O)N[C@@H](CCC(=O)N[C@@H](CCC(=O)NCCCC[C@H](NC(=O)[C@H](CC(=O)O)NC(=O)[C@H](CO)NC(=O)[C@@H](NC(=O)[C@H](Cc1ccccc1)NC(=O)[C@@H](NC(=O)CNC(=O)[C@H](CCC(N)=O)NC(=O)C(C)(C)NC(=O)[C@@H](N)Cc1c[nH]cn1)[C@@H](C)O)[C@@H](C)O)C(=O)N[C@@H](CO)C(=O)N[C@@H](CCCCN)C(=O)N[C@@H](Cc1ccc(O)cc1)C(=O)N[C@@H](CC(C)C)C(=O)N[C@@H](CC(=O)O)C(=O)NC(C)(C)C(=O)N[C@@H](CCCNC(=N)N)C(=O)N[C@@H](C)C(=O)N[C@@H](C)C(=O)N[C@@H](CCC(N)=O)C(=O)N[C@@H](CC(=O)O)C(=O)N[C@@H](Cc1ccccc1)C(=O)N[C@H](C(=O)N[C@@H](CCC(N)=O)C(=O)N[C@@H](Cc1c[nH]c2ccccc12)C(=O)N[C@@H](CC(C)C)C(=O)N[C@@H](CCSC)C(=O)N[C@@H](CC(=O)O)C(=O)N[C@H](C(N)=O)[C@@H](C)O)C(C)C)C(=O)O)C(=O)O` [compound 655] (H-H[Aib]QGTFTSDK([γGlu-γGlu-Palmitoyl])SKYLD[Aib]RAAQDFVQWLMDT-NH2; N-terminus assumed), a half-maximal response under setting [1] (EC50) required 0.003 nM.
Consider `CSCC[C@H](NC(=O)[C@H](CC(C)C)NC(=O)[C@H](Cc1c[nH]c2ccccc12)NC(=O)[C@H](CC(N)=O)NC(=O)[C@@H](NC(=O)[C@H](Cc1ccccc1)NC(=O)[C@H](CCC(=O)O)NC(=O)[C@@H]1CCCCNC(=O)CC[C@H](NC(=O)[C@H](CC(=O)O)NC(=O)[C@H](CC(C)C)NC(=O)[C@H](Cc2ccc(O)cc2)NC(=O)[C@H](CCCCN)NC(=O)[C@H](CO)NC(=O)[C@H](Cc2ccc(O)cc2)NC(=O)[C@H](CC(=O)O)NC(=O)[C@H](CO)NC(=O)[C@@H](NC(=O)[C@H](Cc2ccccc2)NC(=O)[C@@H](NC(=O)CNC(=O)[C@H](CCC(N)=O)NC(=O)[C@H](CO)NC(=O)[C@@H](N)Cc2ccc(O)cc2)[C@@H](C)O)[C@@H](C)O)C(=O)N[C@@H](CCC(N)=O)C(=O)N[C@@H](C)C(=O)N[C@@H](C)C(=O)N1)C(C)C)C(=O)N[C@@H](CC(N)=O)C(=O)NCC(=O)NCC(=O)N1CCC[C@H]1C(=O)N[C@@H](CO)C(=O)N[C@@H](CO)C(=O)NCC(=O)N[C@@H](C)C(=O)N1CCC[C@H]1C(=O)N1CCC[C@H]1C(=O)N1CCC[C@H]1C(=O)N[C@@H](CO)C(N)=O` [SEQ ID NO: 555] (H-YSQGTFTSDYSKYLDEQAAKEFVNWLMNGGPSSGAPPPS-NH2; lactam 16-20; N-terminus assumed), for which the EC50 (EC50, Glucagon receptor, Table 18) is 0.044 nM.
`CCCCCCCCCCCCCCCCCC(=O)N[C@@H](Cc1c[nH]c2ccccc12)C(=O)NCCCC[C@H](NC(=O)[C@H](CC(=O)O)NC(=O)[C@H](CO)NC(=O)[C@@H](NC(=O)[C@H](Cc1ccccc1)NC(=O)[C@@H](NC(=O)CNC(=O)[C@H](CCC(N)=O)NC(=O)[C@H](CO)NC(=O)[C@@H](N)Cc1c[nH]cn1)[C@@H](C)O)[C@@H](C)O)C(=O)N[C@@H](CO)C(=O)N[C@@H](CCCCN)C(=O)N[C@@H](Cc1ccc(O)cc1)C(=O)N[C@@H](CC(C)C)C(=O)N[C@@H](CC(=O)O)C(=O)N[C@@H](CCC(=O)O)C(=O)N[C@@H](CCCNC(=N)N)C(=O)N[C@@H](CCCNC(=N)N)C(=O)N[C@@H](C)C(=O)N[C@@H](CCCCN)C(=O)N[C@@H](CC(=O)O)C(=O)N[C@@H](Cc1ccccc1)C(=O)N[C@H](C(=O)N[C@@H](CCC(N)=O)C(=O)N[C@@H](Cc1c[nH]c2ccccc12)C(=O)N[C@@H](CC(C)C)C(=O)N[C@@H](CCSC)C(=O)N[C@@H](CC(N)=O)C(=O)N[C@H](C(N)=O)[C@@H](C)O)C(C)C` [E16 K20-glucagon-NH2 with K^10—W—C18] came in with an EC50 under setting [2] of 0.05 nM and an EC50 (EC50 at Glucagon Receptor, Table 17) of 0.044 nM.
In the case of `CCCCCCCCCCCCCC(=O)NCCCC[C@H](NC(=O)[C@H](CC(=O)O)NC(=O)[C@H](CO)NC(=O)[C@@H](NC(=O)[C@H](Cc1ccccc1)NC(=O)[C@@H](NC(=O)CNC(=O)[C@H](CCC(N)=O)NC(=O)C(C)(C)NC(=O)[C@@H](N)Cc1c[nH]cn1)[C@@H](C)O)[C@@H](C)O)C(=O)N[C@@H](CO)C(=O)N[C@@H](CCCCN)C(=O)N[C@@H](Cc1ccc(O)cc1)C(=O)N[C@@H](CC(C)C)C(=O)N[C@@H](CC(=O)O)C(=O)NC(C)(C)C(=O)N[C@@H](CCCNC(=N)N)C(=O)N[C@@H](CCCNC(=N)N)C(=O)N[C@@H](C)C(=O)N[C@@H](CCC(N)=O)C(=O)N[C@@H](CC(=O)O)C(=O)N[C@@H](Cc1ccccc1)C(=O)N[C@H](C(=O)N[C@@H](CCC(N)=O)C(=O)N[C@@H](Cc1c[nH]c2ccccc12)C(=O)N[C@@H](CC(C)C)C(=O)N[C@@H](CCSC)C(=O)N[C@@H](CC(N)=O)C(=O)N[C@H](C(N)=O)[C@@H](C)O)C(C)C` [AIB2, AIB16, K10(C14) Gluc Amide], the EC50 (EC50 at the Glucagon receptor, Table 21) is 0.044 nM.
Take `CSCC[C@H](NC(=O)[C@H](CC(C)C)NC(=O)[C@H](Cc1c[nH]c2ccccc12)NC(=O)[C@H](CCC(N)=O)NC(=O)[C@@H](NC(=O)[C@H](Cc1ccccc1)NC(=O)[C@H](CC(=O)O)NC(=O)[C@H](CCC(N)=O)NC(=O)[C@H](C)NC(=O)[C@H](CCCNC(=N)N)NC(=O)[C@H](CCCNC(=N)N)NC(=O)C(C)(C)NC(=O)[C@H](CC(=O)O)NC(=O)[C@H](CC(C)C)NC(=O)[C@H](Cc1ccc(O)cc1)NC(=O)[C@H](CCCCN)NC(=O)[C@H](CO)NC(=O)[C@H](Cc1ccc(O)cc1)NC(=O)[C@H](CC(=O)O)NC(=O)[C@H](CO)NC(=O)[C@@H](NC(=O)[C@H](Cc1ccccc1)NC(=O)[C@@H](NC(=O)CNC(=O)[C@H](CCC(N)=O)NC(=O)C(C)(C)NC(=O)[C@@H](N)Cc1c[nH]cn1)[C@@H](C)O)[C@@H](C)O)C(C)C)C(=O)N[C@@H](CC(N)=O)C(=O)N[C@H](C(N)=O)[C@@H](C)O` [Peptide 26] (H-H[Aib]QGTFTSDYSKYLD[Aib]RRAQDFVQWLMNT-NH2; N-terminus assumed): the EC50 (read-out: EC50 at Glucagon Receptor, Table 22) came out at 0.653 ± 0.285 nM.
Under setting [1], `CCCCCCCCCCCCCCCC(=O)N[C@@H](CCC(=O)NCCCC[C@H](NC(=O)[C@H](CC(=O)O)NC(=O)[C@H](CO)NC(=O)[C@@H](NC(=O)[C@H](Cc1ccccc1)NC(=O)[C@@H](NC(=O)CNC(=O)[C@H](CCC(N)=O)NC(=O)C(C)(C)NC(=O)[C@@H](N)Cc1c[nH]cn1)[C@@H](C)O)[C@@H](C)O)C(=O)N[C@@H](CO)C(=O)N[C@@H](CCCCN)C(=O)N[C@@H](Cc1ccc(O)cc1)C(=O)N[C@@H](CC(C)C)C(=O)N[C@@H](CC(=O)O)C(=O)N[C@@H](CCC(=O)O)C(=O)N[C@@H](CCC(N)=O)C(=O)N[C@@H](C)C(=O)N[C@@H](C)C(=O)N[C@@H](CCCCN)C(=O)N[C@@H](CCC(=O)O)C(=O)N[C@@H](Cc1ccccc1)C(=O)N[C@H](C(=O)N[C@@H](C)C(=O)N[C@@H](Cc1c[nH]c2ccccc12)C(=O)N[C@@H](CC(C)C)C(=O)N[C@@H](CCSC)C(=O)N[C@@H](CC(N)=O)C(=O)N[C@H](C(N)=O)[C@@H](C)O)[C@@H](C)CC)C(=O)O` [compound 645] came in with an EC50 of 0.025 nM.
The molecule `CCCCCCCCCCCCCCCC(=O)N[C@@H](Cc1c[nH]c2ccccc12)C(=O)NCCCC[C@H](NC(=O)[C@H](CC(=O)O)NC(=O)[C@H](CO)NC(=O)[C@@H](NC(=O)[C@H](Cc1ccccc1)NC(=O)[C@@H](NC(=O)CNC(=O)[C@H](CCC(N)=O)NC(=O)[C@H](CO)NC(=O)[C@@H](N)Cc1c[nH]cn1)[C@@H](C)O)[C@@H](C)O)C(=O)N[C@@H](CO)C(=O)N[C@@H](CCCCN)C(=O)N[C@@H](Cc1ccc(O)cc1)C(=O)N[C@@H](CC(C)C)C(=O)N[C@@H](CC(=O)O)C(=O)N[C@@H](CCC(=O)O)C(=O)N[C@@H](CCCNC(=N)N)C(=O)N[C@@H](CCCNC(=N)N)C(=O)N[C@@H](C)C(=O)N[C@@H](CCCCN)C(=O)N[C@@H](CC(=O)O)C(=O)N[C@@H](Cc1ccccc1)C(=O)N[C@H](C(=O)N[C@@H](CCC(N)=O)C(=O)N[C@@H](Cc1c[nH]c2ccccc12)C(=O)N[C@@H](CC(C)C)C(=O)N[C@@H](CCSC)C(=O)N[C@@H](CC(N)=O)C(=O)N[C@H](C(N)=O)[C@@H](C)O)C(C)C` [E16 K20-glucagon-NH2 with K^10—W—C16] came in with a concentration for a half-maximal effect (EC50) under setting [2] of 0.14 nM.
As for `CCCCCCCCCCCCCCCC(=O)NCCCC[C@H](NC(=O)[C@H](CC(=O)O)NC(=O)[C@H](CO)NC(=O)[C@@H](NC(=O)[C@H](Cc1ccccc1)NC(=O)[C@@H](NC(=O)CNC(=O)[C@H](CCC(N)=O)NC(=O)C(C)(C)NC(=O)[C@@H](N)Cc1c[nH]cn1)[C@@H](C)O)[C@@H](C)O)C(=O)N[C@@H](CO)C(=O)N[C@@H](CCCCN)C(=O)N[C@@H](Cc1ccc(O)cc1)C(=O)N[C@@H](CC(C)C)C(=O)N[C@@H](CC(=O)O)C(=O)NC(C)(C)C(=O)N[C@@H](CCCNC(=N)N)C(=O)N[C@@H](CCCNC(=N)N)C(=O)N[C@@H](C)C(=O)N[C@@H](CCC(N)=O)C(=O)N[C@@H](CC(=O)O)C(=O)N[C@@H](Cc1ccccc1)C(=O)N[C@H](C(=O)N[C@@H](CCC(N)=O)C(=O)N[C@@H](Cc1c[nH]c2ccccc12)C(=O)N[C@@H](CC(C)C)C(=O)N[C@@H](CCSC)C(=O)N[C@@H](CC(N)=O)C(=O)N[C@H](C(=O)N[C@@H](CCCCN)C(N)=O)[C@@H](C)O)C(C)C`, the response (EC50 at Glucagon Receptor (20% human plasma), Table 28, 20% human plasma) was half-maximal at 0.313 nM (EC50) and the EC50 (EC50 at Glucagon Receptor, Table 28) stood at 0.761 nM.
The molecule `CCCCCCCCCCCCCCCC(=O)N[C@@H](Cc1c[nH]c2ccccc12)C(=O)NCCCC[C@H](NC(=O)[C@H](CC(=O)O)NC(=O)[C@H](CO)NC(=O)[C@@H](NC(=O)[C@H](Cc1ccccc1)NC(=O)[C@@H](NC(=O)CNC(=O)[C@H](CCC(N)=O)NC(=O)C(C)(C)NC(=O)[C@@H](N)Cc1c[nH]cn1)[C@@H](C)O)[C@@H](C)O)C(=O)N[C@@H](CO)C(=O)N[C@@H](CCCCN)C(=O)N[C@@H](Cc1ccc(O)cc1)C(=O)N[C@@H](CC(C)C)C(=O)N[C@@H](CC(=O)O)C(=O)NC(C)(C)C(=O)N[C@@H](CCCNC(=N)N)C(=O)N[C@@H](CCCNC(=N)N)C(=O)N[C@@H](C)C(=O)N[C@@H](CCC(N)=O)C(=O)N[C@@H](CC(=O)O)C(=O)N[C@@H](Cc1ccccc1)C(=O)N[C@H](C(=O)N[C@@H](CS)C(=O)N[C@@H](Cc1c[nH]c2ccccc12)C(=O)N[C@@H](CC(C)C)C(=O)N[C@@H](CCSC)C(=O)N[C@@H](CC(N)=O)C(=O)N[C@H](C(N)=O)[C@@H](C)O)C(C)C` returned an EC50 (Glucagon Receptor EC50, Table 20) of 0.25 nM.
